From ChEMBL document CHEMBL1131928, “On the relationship of OSW-1 to the cephalostatins” (1999) come the findings set out here.

Structures can show the parent of a compound that is named as a salt.

What all share (assay type): functional
Common to all, as to conditions: Homo sapiens, read-out: ED50 (the source's name)

Test [1] concerns MIA PaCa-2. The experiment in a line: Cytotoxicity against PACA-2 cell line in the purdue cell culture screen was determined.
Test [2] relates to MCF7. Put plainly: Cytotoxicity against MCF-7 cell line in the purdue cell culture screen was determined.
In test [3] the test system is NCI/ADR-RES. The experiment in a line: Cytotoxicity against MCF-7ADR cell line in the purdue cell culture screen was determined.
The subject of test [4] is PC-3. The experiment in a line: Cytotoxicity against PC-3 cell line in the purdue cell culture screen was determined.
The subject of test [5] is A549. The experiment in a line: Cytotoxicity against A-549 cell line in the purdue cell culture screen was determined.
The subject of test [6] is A498. The experiment in a line: Cytotoxicity against A-498 cell line in the purdue cell culture screen was determined.
The subject of test [7] is HT-29. Put plainly: Cytotoxicity against HT-29 cell line in the purdue cell culture screen was determined.
In test [8] the test system is MCF7R. The experiment in a line: Cytotoxicity against MCF-7R cell line in the purdue cell culture screen was determined.

Consider `CC(C)CCC1([C@@H](C)[C@@]2(O)[C@H](O)C[C@@]3(C)C4CC[C@@]5(C)C[C@@H](O)CC[C@]5(C)[C@@]4(C)CC[C@]23C)OCCO1` (stereo not given in full), for which the EC50 was 6.4 µM in test [1]; 2.4 µM in test [2]; 28 µM in test [3]; 39 µM in test [4]; 13 µM in test [5]; 1.7 µM in test [6]. Besides, the EC50 was found to be 3 µM in test [7] and 7.1 µM in test [8].

For the compound `CC(C)CCC(=O)[C@@H](C)[C@@]1(O)C(=O)C[C@@]2(C)C3CC[C@@]4(C)C[C@@H](O)CC[C@]4(C)[C@@]3(C)CC[C@@]21C` (stereo not given in full), the EC50 in test [1] is 30 µM; in test [2] it was 130 µM; in test [3] it was 100 µM; in test [4], 5.6 µM; in test [5], 105 µM; in test [6] it was 19.3 µM. In addition, the values for the EC50 in test [7] and in test [8] were 1.6 µM and 55 µM, respectively.

For `CC(C)CCC1([C@@H](C)[C@@]2(O)C(=O)C[C@@]3(C)C4CC[C@@]5(C)C[C@@H](O)CC[C@]5(C)[C@@]4(C)CC[C@@]32C)OCCO1` (stereo not given in full), the EC50 was determined as 23 µM in test [1]; 5.6 µM in test [2]; 13 µM in test [3]; 43 µM in test [4]; 17 µM in test [5]; 2.4 µM in test [6]. Moreover, the figures for the EC50 in test [7] and in test [8] were 2.1 µM and 6.5 µM, respectively.

With `CO/N=C1\C[C@]2(C)CCC3C4=C[C@@H]5OC6(CC(C)(C)CO6)[C@@H](C)[C@@H]5[C@@]4(C)[C@H](O)C[C@]3(C)[C@@]2(C)C[C@H]1N` (stereo not given in full), the EC50 in test [1] came out at 14 µM; in test [2] it was 14 µM; in test [3], 76 µM; in test [4], 14 µM; in test [5] it was 5.9 µM; in test [6] it was 3.1 µM. Further, the EC50 in test [7] was determined as 7.8 µM.

Regarding `CC(=O)O[C@H]1CC[C@@]2(C)[C@@](C)(CCC3[C@]2(C)CC[C@]2(C)[C@@](O)([C@H](C)C4(CCC(C)C)OCCO4)[C@H](O)C[C@@]32C)C1` (stereo not given in full), the EC50 in test [1] amounted to 23 µM; in test [2] it was 23 µM; in test [3] it was 42 µM; in test [4], 17 µM; in test [5], 30 µM; in test [6], 16 µM. Also, the results for the EC50 in test [7] and in test [8] were 29 µM and 31 µM, respectively.

With `CC(C)CCC1([C@@H](C)[C@@]2(O)[C@@H](O)C[C@@]3(C)C4CC[C@@]5(C)C[C@@H](O)CC[C@]5(C)[C@@]4(C)CC[C@]23C)OCCO1` (stereo not given in full), the EC50 in test [1] came to 1.2 µM; in test [4], 0.4 µM; in test [5], 0.34 µM; in test [6], 1.3 µM; in test [7], 0.58 µM; in test [8], 1.6 µM.

On to `CC(C)CCC1([C@@H](C)[C@@]2(O)[C@@H](O)C[C@@]3(C)C4CC[C@@]5(C)Cc6nc7c(nc6C[C@]5(C)[C@@]4(C)CC[C@]23C)C[C@]2(C)CCC3C4=C[C@@H]5OC6(CC(C)(C)CO6)[C@@H](C)[C@@H]5[C@@]4(C)[C@H](O)C[C@]3(C)[C@@]2(C)C7)OCCO1` (stereo not given in full), for which the EC50 is > 2.2 µM in test [1]; 0.3 µM in test [4]; 0.1 µM in test [5]; 3.1 µM in test [6]; > 2.6 µM in test [7]; 1 µM in test [8].

Regarding `CC(C)CCC1([C@@H](C)[C@@]2(O)[C@@H](O)C[C@@]3(C)C4CC[C@]5(C)Cc6nc7c(nc6C[C@]5(C)[C@]4(C)CC[C@]23C)C[C@@]2(C)CCC3[C@@H]4C[C@@H]5OC6(O[C@](C)(CO)C[C@H]6O)[C@@H](C)[C@]5(O)[C@@]4(C)[C@H](O)C[C@]3(C)[C@@]2(C)C7)OCCO1` (stereo not given in full), the EC50 in test [1] stood at 2.4 µM; in test [4], 1.1 µM; in test [5], 2.9 µM; in test [6] it was 1.1 µM; in test [7], 0.22 µM; in test [8], 0.62 µM.

Turning to `CC(=O)O[C@H]1CC[C@@]2(C)C(=CCC3[C@]4(C)CC(=O)[C@](O)([C@H](C)C5(CCC(C)C)OCCO5)[C@@]4(C)CC[C@@]32C)C1` (stereo not given in full), the EC50 in test [1] stood at 2.2 µM; in test [2] it was 28 µM; in test [3], 26 µM; in test [4] it was 3.7 µM; in test [5], 15 µM; in test [6], 2.8 µM. The EC50 in test [7] came out at 0.5 µM; in test [8], 11 µM.

Turning to `CC(C)CCC(=O)[C@@H](C)[C@@]1(O)[C@H](O)C[C@@]2(C)C3CC[C@@]4(C)C[C@@H](O)CC[C@]4(C)[C@@]3(C)CC[C@]12C` (stereo not given in full), the EC50 in test [1] is 23 µM; in test [2] it was 5.6 µM; in test [3] it was 13 µM; in test [4], 43 µM; in test [5] it was 17 µM; in test [6], 2.4 µM. For the same compound, the figures for the EC50 in test [7] and in test [8] were 2.1 µM and 6.5 µM, respectively.

Turning to `CC(=O)O[C@H]1CC[C@@]2(C)[C@@](C)(CCC3[C@]2(C)CC[C@@]2(C)[C@@]3(C)CC(=O)[C@]2(O)[C@H](C)C2(CCC(C)C)OCCO2)C1` (stereo not given in full), the EC50 in test [1] was found to be 88 µM; in test [2] it was 39 µM; in test [3], 70 µM; in test [4], 580 µM; in test [5] it was 31 µM; in test [6] it was 15 µM. Moreover, the values for the EC50 in test [7] and in test [8] were 7.5 µM and 89 µM, respectively.

`CC(=O)O[C@H]1CC[C@@]2(C)C(=CCC3[C@]4(C)C[C@H](O)[C@](O)([C@H](C)C5(CCC(C)C)OCCO5)[C@@]4(C)CC[C@@]32C)C1` (stereo not given in full): the EC50 is 11 µM in test [1]; > 60 µM in test [2]; > 64 µM in test [3]; 10 µM in test [4]; 15 µM in test [5]; 2.8 µM in test [6]. Further, the results for the EC50 in test [7] and in test [8] were 4.8 µM and 33 µM, respectively.

As to `C[C@@H]1[C@]2(O[C@H]3C=C4[C@@H]5CC[C@H]6Cc7nc8c(nc7C[C@]6(C)[C@H]5C[C@@H](O)[C@]4(C)[C@]31O)C[C@@H]1CC[C@H]3C4=CC[C@@H]5[C@H](C)[C@@]6(OC[C@]45C(=O)C[C@@H]3[C@@]1(C)C8)OC(C)(C)C[C@H]6O)O[C@](C)(CO)C[C@H]2O` [CEPHALOSTATIN 1], the EC50 in test [1] amounted to 4 µM; in test [3], 4.1 µM; in test [4] it was 1.4 µM.

For the compound `COc1cccc2c1C(=O)c1c(O)c3c(c(O)c1C2=O)C[C@@](O)(C(=O)CO)C[C@@H]3O[C@H]1C[C@H](N)[C@H](O)[C@H](C)O1` [DOXORUBICIN HYDROCHLORIDE], the EC50 was 6.3 µM in test [1]; 3.4 µM in test [2]; 1.5 µM in test [3]; 5.7 µM in test [4]; 6.2 µM in test [5]; 3.5 µM in test [6]. Moreover, the figures for the EC50 in test [7] and in test [8] were 3.7 µM and 0.6 µM, respectively.
